Where two headings read alike, the source gives them in different places.

Data on 19 molecules can be found in US20120322842A1, “HETEROCYCYL-SUBSTITUTED-ALKYLAMINOPHENYL DERIVATIVES, THEIR PREPARATION AND USE AS MEDICAMENTS” (LABORATORIOS DEL DR. ESTEVE, S.A., priority 2009, published 2012).

The test deals with T1, Cloned Human Serotonin Receptor, Subtype 7 (h5HT7) (Homo sapiens, UniProt P34969).
T1 construct: purchased PerkinElmer 6120512; host or cells: CHO cells
Description: Radioligand binding assay, [125I]LSD, cloned human 5-HT7 receptor expressed in CHO cells (Flashplate). As to the method:
Radioligand binding assays were performed using the Cloned Human Serotonin Receptor, Subtype 7 (h5HT7), expressed in CHO cells, coated on Flashplate (Basic FlashPlate Cat.: SMP200) from PerkinElmer (Cat.: 6120512). The protocol assay was essentially the recommended protocol in the Technical Data Sheet by PerkinEmer Life and Analytical Sciences. The Mass membrane protein/well was typically […] and the Receptor/well was about 9-10 fmoles. The Flashplate were let equilibrate at room temperature for one hour before the addition of the components of the assay mixture. The binding buffer was: 50 mM Tris-HCl, pH 7.4, containing 10 mM MgCl2, 0.5 mM EDTA and 0.5% BSA. The radioligand was [^125I]LSD at a final concentration of 0.82 nM. Nonspecific binding was determined with 50 µM of Clozapine. The assay volume was 25 l. TopSeal-A were applied onto Flashplate microplates and they were incubated at room temperature for 240 minutes in darkness. The radioactivity were quantified by liquid scintillation spectrophotometry (Wallac 1450 Microbeta Trilux) with a count delay of 4 minutes prior to counting and a counting time of 30 seconds per well. Competition binding data were analyzed by using the LIGAND program (Munson and Rodbard, LIGAND: A versatile, computerized approach for characterization of ligandbinding systems. Anal. Biochem. 107: 220-239, 1980) and assays were performed in triplicate determinations for each point.

Where [1] appears, read: h5HT7 expressed in CHO cells, radioligand [125I]LSD 0.82 nM, nonspecific binding with clozapine, triplicate determinations, read-out: 5-HT7 Ki.

T1 sequence (P34969 whole entry): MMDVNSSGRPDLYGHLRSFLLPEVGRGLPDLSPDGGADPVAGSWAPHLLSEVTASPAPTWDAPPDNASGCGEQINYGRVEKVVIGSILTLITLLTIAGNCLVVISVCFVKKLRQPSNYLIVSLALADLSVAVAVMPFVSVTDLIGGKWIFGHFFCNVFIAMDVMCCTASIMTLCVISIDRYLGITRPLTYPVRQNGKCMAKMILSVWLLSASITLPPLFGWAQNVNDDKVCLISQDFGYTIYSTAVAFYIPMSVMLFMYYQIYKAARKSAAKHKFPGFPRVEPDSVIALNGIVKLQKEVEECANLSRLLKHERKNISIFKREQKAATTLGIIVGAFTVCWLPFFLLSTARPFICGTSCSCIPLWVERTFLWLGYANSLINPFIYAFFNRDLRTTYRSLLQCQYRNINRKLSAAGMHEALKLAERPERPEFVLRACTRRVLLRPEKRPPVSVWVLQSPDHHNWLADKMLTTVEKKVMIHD

Regarding `CCc1c(C)nn(C)c1-c1cccc(CCN(C)C)c1` [Example 2, 2-(3-(4-ethyl-1,3-dimethyl-1H-pyrazol-5-yl)phenyl)-N,N-dimethylethanamine], under setting [1], the Ki was 597 nM.
Regarding `CCc1c(C)nn(C)c1-c1ccc(OC)c(CCN(C)C)c1` [Example 3, 2-(5-(4-ethyl-1,3-dimethyl-1H-pyrazol-5-yl)-2-methoxyphenyl)-N,N-dimethyl ethanamine], the affinity, expressed as Ki, was 599 nM.
In the case of `CCc1c(C)nn(C)c1-c1ccc(O)c(CCN(C)C)c1` [Example 4, 2-(2-(dimethylamino)ethyl)-4-(4-ethyl-1,3-dimethyl-1H-pyrazol-5-yl)phenol], under setting [1], the Ki was determined as 577 ± 81.6 nM.
Still for that read-out and setting: in the case of `Cc1nn(C)c(-c2cccc(CCN(C)C)c2)c1C` [Example 8, N,N-dimethyl-2-(3-(1,3,4-trimethyl-1H-pyrazol-5-yl)phenyl)ethanamine] it was 261 ± 102 nM.
With `COc1ccc(-c2c(C)c(C)nn2C)cc1CCN(C)C` [Example 9, 2-(2-methoxy-5-(1,3,4-trimethyl-1H-pyrazol-5-yl)phenyl)-N,N-dimethylethanamine], the Ki is 113 ± 2.6 nM.
In the case of `Cc1nn(C)c(-c2ccc(O)c(CCN(C)C)c2)c1C` [Example 10, 2-(2-(dimethylamino)ethyl)-4-(1,3,4-trimethyl-1H-pyrazol-5-yl)phenol], under setting [1], the Ki stood at 102 nM.
On the same count and under the same terms, in the case of `CNCCc1cc(-c2c(C)c(C)nn2C)ccc1O` [Example 11, 2-(2-(methylamino)ethyl)-4-(1,3,4-trimethyl-1H-pyrazol-5-yl)phenol] it was 23.5 ± 5.2 nM; in that of `COc1ccc(-c2c(-c3ccccc3)c(C)nn2-c2ccccc2)cc1CCN(C)C` [Example 19, 2-(2-methoxy-5-(3-methyl-1,4-diphenyl-1H-pyrazol-5-yl)phenyl)-N,N-dimethyl ethanamine], 447 ± 64.8 nM.
On to `COc1ccc(-c2c(C)c(C)nn2-c2ccccc2)cc1CCN(C)C` [Example 22, 2-(5-(3,4-dimethyl-1-phenyl-1H-pyrazol-5-yl)-2-methoxyphenyl)-N,N-dimethyl ethanamine], for which the Ki under setting [1] came out at 391 nM.
The same measure, in the same setting: the value for `Cc1nn(-c2ccccc2)c(-c2ccc(O)c(CCN(C)C)c2)c1C` [Example 23, 4-(3,4-dimethyl-1-phenyl-1H-pyrazol-5-yl)-2-(2-(dimethylamino)ethyl)phenol] was 611 nM; that for `COc1ccc(-c2c3c(nn2-c2ccccc2)CCCC3)cc1CCN(C)C` [Example 25, 2-(2-methoxy-5-(2-phenyl-4,5,6,7-tetrahydro-2H-indazol-3-yl)phenyl)-N,N-dimethyl ethanamine] was 420 nM.
`CCn1nc(C)c(C)c1-c1ccc(OC)c(CCN(C)C)c1` [Example 28, 2-(5-(1-ethyl-3,4-dimethyl-1H-pyrazol-5-yl)-2-methoxyphenyl)-N,N-dimethyl ethanamine] showed a Ki of 81.9 nM.
Regarding `CCn1nc(C)c(C)c1-c1ccc(O)c(CCN(C)C)c1` [Example 29, 2-(2-(dimethylamino)ethyl)-4-(1-ethyl-3,4-dimethyl-1H-pyrazol-5-yl)phenol], the inhibition constant Ki under setting [1] was 102 nM.
The same measure, in the same setting: in the case of `Cc1nn(C(C)C)c(-c2cccc(CCN(C)C)c2)c1C` [Example 30, 2-(3-(1-isopropyl-3,4-dimethyl-1H-pyrazol-5-yl)phenyl)-N,N-dimethylethanamine] it was 300 nM.
`COc1ccc(-c2c(C)c(C)nn2C(C)C)cc1CCN(C)C` [Example 31, 2-(5-(1-isopropyl-3,4-dimethyl-1H-pyrazol-5-yl)-2-methoxyphenyl)-N,N-dimethyl ethanamine] yielded a Ki of 83.1 nM.
`Cc1nn(C(C)C)c(-c2ccc(O)c(CCN(C)C)c2)c1C` [Example 32, 2-(2-(dimethylamino)ethyl)-4-(1-isopropyl-3,4-dimethyl-1H-pyrazol-5-yl)phenol]: the Ki under setting [1] was found to be 150 nM.
Same read-out and setting: in the case of `Cc1nn(CC(F)(F)F)c(-c2cccc(CCN(C)C)c2)c1C` [Example 33, 2-(3-(3,4-dimethyl-1-(2,2,2-trifluoroethyl)-1H-pyrazol-5-yl)phenyl)-N,N-dimethyl ethanamine] it was 527 nM; in that of `COc1ccc(-c2c(C)c(C)nn2CC(F)(F)F)cc1CCN(C)C` [Example 34, 2-(5-(3,4-dimethyl-1-(2,2,2-trifluoroethyl)-1H-pyrazol-5-yl)-2-methoxyphenyl)-N,N-dimethyl ethanamine], 146 nM.
`Cc1nn(CC(F)(F)F)c(-c2ccc(O)c(CCN(C)C)c2)c1C` [Example 35, 4-(3,4-dimethyl-1-(2,2,2-trifluoroethyl)-1H-pyrazol-5-yl)-2-(2-(dimethylamino)ethyl)phenol]: the inhibition constant (Ki) under setting [1] was 320 nM.
